Measurements taken from article PMC5641445 (Journal of medicinal chemistry, 2017).
Structures can show the parent of a compound that is named as a salt.

Assays:
[1] = biological target: mouse PKA catalytic subunits (Mus musculus, UniProt P05132); test: PKA inhibition, ADP-Glo Kinase Assay
[2] = biological target: T1, bovine GRK2 (S670A) (Bos taurus, UniProt P21146, S670A); test: GRK2 kinase inhibition
T1 sequence (P21146 1-689 S670A): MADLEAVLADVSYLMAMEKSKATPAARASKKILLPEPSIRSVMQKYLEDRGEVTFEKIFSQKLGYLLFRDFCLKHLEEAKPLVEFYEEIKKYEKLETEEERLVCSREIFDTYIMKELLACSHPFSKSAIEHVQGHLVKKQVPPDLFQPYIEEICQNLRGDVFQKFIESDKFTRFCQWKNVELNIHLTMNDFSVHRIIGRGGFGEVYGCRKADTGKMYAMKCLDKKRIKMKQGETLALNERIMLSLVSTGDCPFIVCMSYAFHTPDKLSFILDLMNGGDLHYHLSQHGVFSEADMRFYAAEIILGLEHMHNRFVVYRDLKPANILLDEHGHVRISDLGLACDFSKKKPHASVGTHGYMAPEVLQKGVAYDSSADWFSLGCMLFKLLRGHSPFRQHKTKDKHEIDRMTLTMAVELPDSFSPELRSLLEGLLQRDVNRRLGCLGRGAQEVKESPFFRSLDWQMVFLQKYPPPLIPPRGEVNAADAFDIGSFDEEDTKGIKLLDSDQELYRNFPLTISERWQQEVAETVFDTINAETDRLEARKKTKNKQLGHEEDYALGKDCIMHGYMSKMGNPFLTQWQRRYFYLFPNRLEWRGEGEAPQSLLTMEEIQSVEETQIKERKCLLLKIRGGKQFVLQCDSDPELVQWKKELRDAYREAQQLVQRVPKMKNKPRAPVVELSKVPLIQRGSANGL

[3] = biological target: bovine GRK5 (Bos taurus, UniProt P43249); test: GRK5 kinase inhibition
Chain of bovine GRK5 (P43249 whole entry): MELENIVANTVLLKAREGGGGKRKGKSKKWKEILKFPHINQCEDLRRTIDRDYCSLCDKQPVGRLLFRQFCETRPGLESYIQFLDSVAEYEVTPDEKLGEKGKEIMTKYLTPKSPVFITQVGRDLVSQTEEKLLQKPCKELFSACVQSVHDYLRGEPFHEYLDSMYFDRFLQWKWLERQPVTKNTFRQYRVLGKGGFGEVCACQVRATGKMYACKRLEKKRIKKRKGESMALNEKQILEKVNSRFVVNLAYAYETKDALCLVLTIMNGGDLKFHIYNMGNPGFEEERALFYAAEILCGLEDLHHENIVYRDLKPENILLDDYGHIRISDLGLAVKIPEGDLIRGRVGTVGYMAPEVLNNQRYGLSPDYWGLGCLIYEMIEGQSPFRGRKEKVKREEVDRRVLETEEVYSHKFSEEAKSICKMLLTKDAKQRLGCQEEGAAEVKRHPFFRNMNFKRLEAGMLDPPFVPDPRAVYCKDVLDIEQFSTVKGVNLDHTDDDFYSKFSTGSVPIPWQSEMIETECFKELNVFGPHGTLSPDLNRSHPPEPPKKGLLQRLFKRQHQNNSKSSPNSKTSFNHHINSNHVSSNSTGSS

[4] = Metabolic stability in mouse liver microsomes; type: in vitro ADME; details: polar carboxamides on the paroxetine template
[5] = test system: mouse cardiomyocytes; type: cell-based
[6] = Abbreviated pharmacokinetic study in mice after IP administration
[7] = female, CD-1, mouse, plasma, ip, 10 mg/kg

Row | IC50 [1] [µM] | SMILES | further results
1 | > 100 | COc1cccc(OC)c1CNC(=O)c1cc([C@@H]2CCNC[C@H]2COc2ccc3c(c2)OCO3)ccc1F [14ai, 5-((3S,4R)-3-((benzo[d][1,3]dioxol-5-yloxy)methyl)piperidin-4-yl)-N-(2,6-dimethoxybenzyl)-2-fluorobenzamide hydrochloride] | –
2 | > 100 | O=C(NCc1cn[nH]c1)c1cc([C@@H]2CCNC[C@H]2COc2ccc3c(c2)OCO3)ccc1F [14ax, N-((1H-pyrazol-4-yl)methyl)-5-((3S,4R)-3-((benzo[d][1,3]dioxol-5-yloxy)methyl)piperidin-4-yl)-2-fluorobenzamide] | decrease in GRK2 potency relative to 14as [2]: 10 fold
3 | > 100 | O=C(NCCc1ccccc1)c1cc([C@@H]2CCNC[C@H]2COc2ccc3c(c2)OCO3)ccc1F [14ac, 5-((3S,4R)-3-((benzo[d][1,3]dioxol-5-yloxy)methyl)piperidin-4-yl)-2-fluoro-N-phenethylbenzamide] | –
4 | > 100 | O=C(NCc1cccnc1)c1cc([C@@H]2CCNC[C@H]2COc2ccc3c(c2)OCO3)ccc1F [14al, 5-((3S,4R)-3-((benzo[d][1,3]dioxol-5-yloxy)methyl)piperidin-4-yl)-2-fluoro-N-(pyridin-3-ylmethyl)benzamide] | –
5 | > 100 | O=C(NCCc1ccccn1)c1cc([C@@H]2CCNC[C@H]2COc2ccc3c(c2)OCO3)ccc1F [14an, 5-((3S,4R)-3-((benzo[d][1,3]dioxol-5-yloxy)methyl)piperidin-4-yl)-2-fluoro-N-(2-(pyridin-2-yl)ethyl)benzamide] | –
6 | > 100 | O=C(NCc1ccncc1)c1cc([C@@H]2CCNC[C@H]2COc2ccc3c(c2)OCO3)ccc1F [14am, 5-((3S,4R)-3-((benzo[d][1,3]dioxol-5-yloxy)methyl)piperidin-4-yl)-2-fluoro-N-(pyridin-4-ylmethyl)benzamide] | –
7 | > 100 | O=C(NCCc1ccncc1)c1cc([C@@H]2CCNC[C@H]2COc2ccc3c(c2)OCO3)ccc1F [14ap, 5-((3S,4R)-3-((benzo[d][1,3]dioxol-5-yloxy)methyl)piperidin-4-yl)-2-fluoro-N-(2-(pyridin-4-yl)ethyl)benzamide] | –
8 | > 100 | O=C(NCc1c(Cl)cccc1Cl)c1cc([C@@H]2CCNC[C@H]2COc2ccc3c(c2)OCO3)ccc1F [14ah, 5-((3S,4R)-3-((benzo[d][1,3]dioxol-5-yloxy)methyl)piperidin-4-yl)-N-(2,6-dichlorobenzyl)-2-fluorobenzamide] | –
9 | > 100 | Cc1cc(CNC(=O)c2cc([C@@H]3CCNC[C@H]3COc3ccc4c(c3)OCO4)ccc2F)n[nH]1 [14au, 5-((3S,4R)-3-((benzo[d][1,3]dioxol-5-yloxy)methyl)piperidin-4-yl)-2-fluoro-N-((5-methyl-1H-pyrazol-3-yl)methyl)benzamide] | selectivity for GRK2 over GRK5 [3]: > 100 fold
10 | > 100 | O=C(NCCc1c(F)cccc1F)c1cc([C@@H]2CCNC[C@H]2COc2ccc3c(c2)OCO3)ccc1F [14ae, 5-((3S,4R)-3-((benzo[d][1,3]dioxol-5-yloxy)methyl)piperidin-4-yl)-N-(2,6-difluorophenethyl)-2-fluorobenzamide] | –
11 | > 100 | Cn1nccc1CNC(=O)c1cc([C@@H]2CCNC[C@H]2COc2ccc3c(c2)OCO3)ccc1F [14aw, 5-((3S,4R)-3-((benzo[d][1,3]dioxol-5-yloxy)methyl)piperidin-4-yl)-2-fluoro-N-((1-methyl-1H-pyrazol-5-yl)methyl)benzamide] | decrease in GRK2 potency relative to 14as [2]: 70 fold
12 | > 100 | O=C(NCc1c(F)cccc1F)c1cc([C@@H]2CCNC[C@H]2COc2ccc3c(c2)OCO3)ccc1F [14ad, 5-((3S,4R)-3-((benzo[d][1,3]dioxol-5-yloxy)methyl)piperidin-4-yl)-N-(2,6-difluorobenzyl)-2-fluorobenzamide hydrochloride] | –
13 | > 100 | O=C(Cc1cc([C@@H]2CCNC[C@H]2COc2ccc3c(c2)OCO3)ccc1F)NCCc1cn[nH]c1 [14bd, N-(2-(1H-pyrazol-4-yl)ethyl)-2-(5-((3S,4R)-3-((benzo[d][1,3]dioxol-5-yloxy)methyl)piperidin-4-yl)-2-fluorophenyl)acetamide] | increase in GRK2 potency relative to paroxetine [2]: 2 fold
14 | > 100 | Cc1cccc(C)c1CNC(=O)c1cc([C@@H]2CCNC[C@H]2COc2ccc3c(c2)OCO3)ccc1F [14ag, 5-((3S,4R)-3-((benzo[d][1,3]dioxol-5-yloxy)methyl)piperidin-4-yl)-N-(2,6-dimethylbenzyl)-2-fluorobenzamide hydrochloride] | –
15 | > 100 | O=C(NCc1ccccc1)c1cc([C@@H]2CCNC[C@H]2COc2ccc3c(c2)OCO3)ccc1F [14ab, 5-((3S,4R)-3-((benzo[d][1,3]dioxol-5-yloxy)methyl)piperidin-4-yl)-N-benzyl-2-fluorobenzamide] | –
16 | > 100 | O=C(Cc1cc([C@@H]2CCNC[C@H]2COc2ccc3c(c2)OCO3)ccc1F)NCCc1ccccn1 [14bc, 2-(5-((3S,4R)-3-((benzo[d][1,3]dioxol-5-yloxy)methyl)piperidin-4-yl)-2-fluorophenyl)-N-(2-(pyridin-2-yl)ethyl)acetamide hydrochloride] | –
17 | > 100 | O=C(NCCc1cc[nH]n1)c1cc([C@@H]2CCNC[C@H]2COc2ccc3c(c2)OCO3)ccc1F [14at, N-(2-(1H-pyrazol-3-yl)ethyl)-5-((3S,4R)-3-((benzo[d][1,3]dioxol-5-yloxy)methyl)piperidin-4-yl)-2-fluorobenzamide] | decrease in GRK2 potency relative to 14as [2]: 26 fold
18 | > 100 | O=C(NCc1ccccc1C(F)(F)F)c1cc([C@@H]2CCNC[C@H]2COc2ccc3c(c2)OCO3)ccc1F [14af, 5-((3S,4R)-3-((benzo[d][1,3]dioxol-5-yloxy)methyl)piperidin-4-yl)-2-fluoro-N-(2-(trifluoromethyl)benzyl)benzamide] | –
19 | > 100 | O=C(NCCc1cn[nH]c1)c1cc([C@@H]2CCNC[C@H]2COc2ccc3c(c2)OCO3)ccc1F [14ay, N-(2-(1H-pyrazol-4-yl)ethyl)-5-((3S,4R)-3-((benzo[d][1,3]dioxol-5-yloxy)methyl)piperidin-4-yl)-2-fluorobenzamide hydrochloride] | –
20 | > 100 | O=C(NCCc1c[nH]cn1)c1cc([C@@H]2CCNC[C@H]2COc2ccc3c(c2)OCO3)ccc1F [14ar, N-(2-(1H-imidazol-4-yl)ethyl)-5-((3S,4R)-3-((benzo[d][1,3]dioxol-5-yloxy)methyl)piperidin-4-yl)-2-fluorobenzamide] | –
21 | > 100 | Cn1ccc(CNC(=O)c2cc([C@@H]3CCNC[C@H]3COc3ccc4c(c3)OCO4)ccc2F)n1 [14av, 5-((3S,4R)-3-((benzo[d][1,3]dioxol-5-yloxy)methyl)piperidin-4-yl)-2-fluoro-N-((1-methyl-1H-pyrazol-3-yl)methyl)benzamide] | decrease in GRK2 potency relative to 14as [2]: 40 fold
22 | > 100 | COc1ccccc1CNC(=O)c1cc([C@@H]2CCNC[C@H]2COc2ccc3c(c2)OCO3)ccc1F [14aj, 5-((3S,4R)-3-((benzo[d][1,3]dioxol-5-yloxy)methyl)piperidin-4-yl)-2-fluoro-N-(2-methoxybenzyl)benzamide hydrochloride] | –
23 | > 100 | O=C(NCc1ncc[nH]1)c1cc([C@@H]2CCNC[C@H]2COc2ccc3c(c2)OCO3)ccc1F [14aq, N-((1H-imidazol-2-yl)methyl)-5-((3S,4R)-3-((benzo[d][1,3]dioxol-5-yloxy)methyl)piperidin-4-yl)-2-fluorobenzamide] | –
24 | > 100 | O=C(NCc1ccn[nH]1)c1cc([C@@H]2CCNC[C@H]2COc2ccc3c(c2)OCO3)ccc1F [14as, N-((1H-pyrazol-5-yl)methyl)-5-((3S,4R)-3-((benzo[d][1,3]dioxol-5-yloxy)methyl)piperidin-4-yl)-2-fluorobenzamide] | metabolic stability in MLM, in words [4]: substantial metabolic instability; improvement in contractility efficacy over compound 4 [5]: 5 fold; concentration giving improved contractility ([5]; isoproterenol-stimulated): 100 nM; concentration at 30 min [6, 7]: 2710 nM; concentration at 2 h [6, 7]: 1440 nM; concentration at 4 h [6, 7]: 270 nM; concentration at 7 h [6, 7]: 43 nM; time with plasma concentration higher than GRK2 IC50 ([…] nM) ([6]; mice, single IP administration 10 mg/kg): over seven
25 | > 100 | O=C(NCCc1cccnc1)c1cc([C@@H]2CCNC[C@H]2COc2ccc3c(c2)OCO3)ccc1F [14ao, 5-((3S,4R)-3-((benzo[d][1,3]dioxol-5-yloxy)methyl)piperidin-4-yl)-2-fluoro-N-(2-(pyridin-3-yl)ethyl)benzamide] | –
26 | > 100 | Fc1ccc([C@@H]2CCNC[C@H]2COc2ccc3c(c2)OCO3)cc1 [Paroxetine, paroxetine, reference compound] | –

Row | SMILES | IC50 [1] [µM] | further results
27 | CNC(=O)c1cc([C@@H]2CCNC[C@H]2COc2ccc3c(c2)OCO3)ccc1F [14aa, 5-((3S,4R)-3-((benzo[d][1,3]dioxol-5-yloxy)methyl)piperidin-4-yl)-2-fluoro-N-methylbenzamide] | > 100 | –
